Data published in patent US20210113602A1, “USE OF 6-THIO-2'-DEOXYGUANOSINE (6-THIO-dG) TO TREAT MELANOMA” (The Board of Regents of the University of Texas System, priority 2018, published 2021).
Entries after “also recorded” stand apart in the source; their conditions may differ.

What was measured:
KRAS mutant HCT116 cells = experiment: Cell death, Annexin V/PI; type: cell-based, human; conditions: 1 μM 6-thio-dG, 5 μM Gam
[1] = system: NRASmut melanoma cells (WM3000 or M93-047) tumors; experiment: NRAS mutant melanoma xenograft tumors in NSG mice; type: in vivo; conditions: 2.5 mg/kg i.p. q.d.
Method: FIGS. 2a-h. […] (FIGS. 2a-c) NRASmut melanoma cells (FIG. 2a), BRAF-V600E/NRAS mutant cells derived from melanoma patients resistant to BRAF/MEK inhibitors (FIG. 2b), or non-transformed melanocytes and fibroblasts (FIG. 2c) were treated with 6-thio-dG for 7 days. Cell viability was measured by Alamar Blue assay and calculated relative to DMSO-treated cells. (FIG. 2d) NRASmut melanoma cells and non-transformed human fibroblasts were treated with 1 or 5 μM 6-thio-dG for 7 or 14 days. Cell death was assessed by PSVUe staining. Percent of apoptotic cells is shown. (FIG. 2e) Cells were treated with DMSO or 1 μM 6-thio-dG for 14 days and telomere length was assessed by Southern blotting of TRF. Mean TRF length expressed as kilobase pairs is indicated at the bottom. […] (FIG. 2f) ROS production was measured by H2DCFDA fluorescence and normalized to MSO treated cells. (FIG. 2g) DNA damage was assessed by γH2AX staining. […] Tumor volume was measured and average tumor volume (n=4)±SEM was plotted vs. time.
green) and EtBr (dead cells; red) and imaged using an inverted microscope (4×; scale bar=250 μm). […] P values were calculated using unpaired Student's t-test. * p<0.05, **p<0.01, ***p<0.005, when comparing vehicle control vs. combination treatment groups. […] Kaplan Meier survival curves of mice treated for 14 days. p-values were calculated by Mantel-Cox logrank test; * p<0.05, **p<0.01, ***p<0.005. […]

KRAS mutant A549 cells = experiment: Cell death, Annexin V/PI; type: cell-based, human; conditions: 1 μM 6-thio-dG, 5 μM Gam
[2] = in mice; cited from earlier work
[3] = system: NRAS mutant melanoma cells; experiment: ROS production, H2DCFDA fluorescence; type: cell-based, human; conditions: 1 μM for 7 days
Method: (§1) FIGS. 2a-h. […] (FIGS. 2a-c) NRASmut melanoma cells (FIG. 2a), BRAF-V600E/NRAS mutant cells derived from melanoma patients resistant to BRAF/MEK inhibitors (FIG. 2b), or non-transformed melanocytes and fibroblasts (FIG. 2c) were treated with 6-thio-dG for 7 days. Cell viability was measured by Alamar Blue assay and calculated relative to DMSO-treated cells. (FIG. 2d) NRASmut melanoma cells and non-transformed human fibroblasts were treated with 1 or 5 μM 6-thio-dG for 7 or 14 days. Cell death was assessed by PSVUe staining. Percent of apoptotic cells is shown. (FIG. 2e) Cells were treated with DMSO or 1 μM 6-thio-dG for 14 days and telomere length was assessed by Southern blotting of TRF. Mean TRF length expressed as kilobase pairs is indicated at the bottom. (FIGS. 2f-g) Cells were treated with 1 μM 6-thio-dG for 7 days. (FIG. 2f) ROS production was measured by H2DCFDA fluorescence and normalized to MSO treated cells. (FIG. 2g) DNA damage was assessed by γH2AX staining. Data represent average from three independent experiments±SEM. *p<0.05; **p<0.01; ***p<0.005 in unpaired Student's t-test. […] Tumor volume was measured and average tumor volume (n=4)±SEM was plotted vs. time.
Measurement of reactive oxygen species. General or mitochondrial specific ROS were measured by flow cytometry H2DCFDA or MitoSoxRed (Invitrogen, Waltham, Mass.) following manufacturer's specifications.

NRAS mutant SKNAS cells = experiment: Cell death, Annexin V/PI; type: cell-based, human; conditions: single agents or combination; 1 μM 6-thio-dG, 5 μM Gam
[4] = system: NRAS mutant melanoma cells; experiment: Telomere length, Southern blotting of TRF; type: cell-based, human; conditions: 1 μM for 14 days
Method: as §1
Telomere length assay. […] The images were analyzed with Phosphorimager, visualized by Typhoon 9410 Imager (GE Healthcare), and processed with ImageQuant 5.2 software (Molecular Dynamics).

Nc1nc2c(ncn2[C@H]2C[C@H](O)[C@@H](CO)O2)c(=S)[nH]1 [6-thio-dG, 6-thio-2′-deoxy-guanosine]
cell death (KRAS mutant HCT116 cells): did not induce substantial death
tumor growth, single agent [1]: slowed the growth of tumors; also recorded: slowed, but did not completely abrogated tumor growth
cell death (KRAS mutant A549 cells): did not induce substantial death
alanine aminotransferase (ALT) [2]: no significant effects
aspartate aminotransferase (AST) [2]: no significant effects
creatinine levels [2]: no significant effects
red blood cells [2]: no significant effects
white blood cells [2]: no significant effects
ROS levels [3]: increased levels
cell death (NRAS mutant SKNAS cells): triggered significant death
telomere length (mean TRF) [4]: without evidence for significant telomere shortening
